Source: patent US20240000765A1, “COMBINATION TREATMENT OF LIVER DISORDERS” (Terns Pharmaceuticals, Inc., priority 2020, published 2024)

Legend:
mouse NASH model = assay: Mouse NASH model (high fat diet + CCl4), Compound 2; format: in vivo, C57BL/6J mice
Description: C57BL/6J mice were fed a high fat diet for 10 weeks to induce obesity (>38 g BW). Obese mice were injected intraperitoneally (i.p.) twice a week for four weeks with 0.5 μl/g 25% CCl4 (formulated in olive oil) to induce fibrosis, and one group of normal BW mice were injected i.p. twice a week for four weeks with olive oil to serve as a healthy control. During the same dosing period, obese mice were fed orally once a day for 28 days with vehicle or varying doses of Compound 2. On CCl4 dosing days, CCl4 was administered at 4 hours post compound or vehicle dosing. On day 27, all animals were fasted for about 16 hours before terminal euthanasia. On day 28, all animals were sacrificed and various biological parameters were analyzed. Total body, liver, heart and brain weight were measured and changes in liver and heart weight were normalized using brain weight. […] Liver tissue histology was analyzed for effects of Compound 2 on steatosis, inflammation and fibrosis. […] Liver samples were collected for whole transcriptome analysis by RNA sequencing (RNAseq). RNAseq library (n=5 per group) preparation and sequencing was performed using Illumina standard protocols. Alignment of sequencing reads was performed using STAR aligner software and read counts were estimated using RSEM. Differentially expressed genes (compared to vehicle-treated NASH control mice) were determined using EdgeR software. Gene ontology analysis was performed using Advaita software with fold-change and adjusted p-value cutoffs of >1.5 and <0.05, respectively. Gene ontologies were derived from the Gene Ontology Consortium database (2019 Apr. 26) (Ashbumer et al., Gene ontology: Tool for the unification of biology. Nature Genetics 25(1): 25-9 (2000); Gene Ontology Consortium, Creating the Gene Ontology Resource: Design and Implementation. Genome Research 11: 1425-1433 (2001)).

THRα [1] = biological target: T1, THRα (Homo sapiens, UniProt P10827); assay: Agonistic activity toward THRα; format: biochemical
T1 sequence (P10827 1-410 isoform P10827-2): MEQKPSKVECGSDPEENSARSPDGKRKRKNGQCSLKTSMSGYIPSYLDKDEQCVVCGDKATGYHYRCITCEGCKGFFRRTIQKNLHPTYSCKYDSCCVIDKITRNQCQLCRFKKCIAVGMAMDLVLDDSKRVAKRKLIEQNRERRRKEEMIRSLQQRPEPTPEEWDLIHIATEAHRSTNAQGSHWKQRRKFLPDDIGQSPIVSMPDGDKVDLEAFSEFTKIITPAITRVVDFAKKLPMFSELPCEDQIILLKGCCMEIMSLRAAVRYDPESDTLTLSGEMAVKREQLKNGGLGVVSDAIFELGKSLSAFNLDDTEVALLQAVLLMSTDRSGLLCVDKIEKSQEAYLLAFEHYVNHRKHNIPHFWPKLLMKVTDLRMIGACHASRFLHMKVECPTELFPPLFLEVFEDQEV

THRα [2] = biological target: T1, THRα; assay: Binding activity to THRα; details: read-out: IC50 THRα binding force
[3] = Pharmacokinetic evaluation in rats, intragastric infusion; format: in vivo; details: SD rats, intragastric 2 mg/kg
Description: Drug Preparation: a certain amount of the drug was taken and added into a 2% Klucel LF+0.1% Tween 80 aqueous solution, to prepare a clear solution or a uniform suspension.
Dosage: SD rats were fasted overnight and given the drug by intragastric infusion at an administrated dose of 2 mg/kg and an administrated volume of 10 mL/kg each.
Operation: rats were dosed by intragastric infusion with the compounds. […] The heparinized sample tubes were then stored at −20° C., and the rats were allowed to eat food 2 h after the dosage.
Determination of contents of the compounds to be tested in the plasma of rats after intragastric infusion of the drugs at different concentrations: the plasma samples were thawed at room temperature, 50 μL each was taken and added into 130 μL of an internal standard working solution (1000 ng/mL, acetonitrile, tolbutamide), and the mixture was whirled for about 1 min and then centrifugated at 4° C. and 13000 rpm for 10 min. 50 μL of the supernatant was taken and mixed with 100 μL of 50% acetonitrile water, and then introduced for LC/MS/MS analysis.

THRβ = biological target: T2, THRβ (Homo sapiens, UniProt P10828); assay: Binding activity to the thyroxine receptor beta; details: ratio of binding IC50
T2 sequence (P10828 1-461): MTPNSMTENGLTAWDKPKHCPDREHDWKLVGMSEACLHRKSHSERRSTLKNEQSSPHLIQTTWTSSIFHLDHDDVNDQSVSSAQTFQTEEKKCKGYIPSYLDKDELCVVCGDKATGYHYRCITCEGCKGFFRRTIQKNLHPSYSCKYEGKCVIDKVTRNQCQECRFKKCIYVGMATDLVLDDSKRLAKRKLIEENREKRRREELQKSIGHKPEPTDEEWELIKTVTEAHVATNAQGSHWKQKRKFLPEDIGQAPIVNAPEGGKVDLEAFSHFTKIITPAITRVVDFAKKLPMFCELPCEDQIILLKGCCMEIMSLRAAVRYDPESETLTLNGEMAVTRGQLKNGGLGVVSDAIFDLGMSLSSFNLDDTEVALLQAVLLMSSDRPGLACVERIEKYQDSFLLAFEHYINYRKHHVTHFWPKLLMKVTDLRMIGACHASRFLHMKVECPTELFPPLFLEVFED

SMILES: N#Cc1nn(-c2cc(Cl)c(Oc3n[nH]c(=O)c4ccccc34)c(Cl)c2)c(=O)[nH]c1=O [Compound 2]
- liver fibrosis (histology) (mouse NASH model; 3 and 10 mpk): significantly reduced
- liver steatosis (histology) (mouse NASH model; all doses tested): significantly reduced
- serum ALT (mouse NASH model; all doses tested): significantly reduced
- serum total cholesterol (mouse NASH model; all doses tested): significantly reduced
- serum triglycerides (mouse NASH model; all doses tested): significantly reduced
- expression of genes associated with collagen extracellular matrix and hepatic stellate cell activation relative to NASH control (mouse NASH model; liver RNAseq): reducing their expression levels
- heart/brain weight (mouse NASH model; oral once a day, 28 days): no effect
- liver inflammation (histology) (mouse NASH model; oral once a day, 28 days): trend in inflammation reduction
- liver/brain weight (mouse NASH model; oral once a day, 28 days): significantly reduced
- total body weight (mouse NASH model; oral once a day, 28 days): no effect
- EC50 (THRα [1]): 3.98 µM
- IC50 (THRα [2]): > 10 µM
- Curve area [3]: 24790 ± 3704 ng·h/mL
- Peak blood drug concentration [3]: 2007 ± 106 ng/mL
- Time to peak [3]: 4.67 ± 1.15 h
- THRα/β selectivity (factor) (THRβ): >58.8
